# Assay results reported in patent publication US10793482B2, “Compounds and compositions for delivery of nutrients and micronutrients to plants” (Spero Energy, Inc., priority 2015, dated 2020).
# How the values were obtained:
# Format in all cases: in vivo
# [1] = test system: bell pepper plants, Capsicum annuum; assay: Iron content in leaves of bell pepper plants grown hydroponically with Fe chelates (elemental analysis); conditions: for Amount of iron delivered / iron content by plant tissue analyses (in words): bell pepper plants, 4 ppm iron chelate, compared with EDTA or EDDHA chelates; for Iron content in plant leaves: leaves after week 2, finished iron solution of 4 ppm in no-iron Steiner hydroponic solution, pH 8
# Protocol: (§1) Seven (7) identical cultivated varieties of bell pepper plants, Capsicum annuum were grown in individual five-gallon containers deep-water-culture (DWC) containers (the Root Spa bucket system by Hydrofarm) that is continuously aerated by a single oxygen line that stems from an air pump in a soilless media of rockwool surrounded by clay pebbles in a mesh tray that rests on top of the buckets. The pepper plants were grown indoors with an ambient air temperature of around 72° F. The light source came from high-pressure sodium bulbs with a light interval of 12 hours on and 12 hours off.
# (§2) The pepper plants were grown with a beginning identical nutritional mix similar to that of a Steiner hydroponic solution. […] The total solution pH was raised to 8 and adjusted daily to maintain the pH at 8. Potassium hydroxide was used to increase the pH. There were 7 treatments of iron added (or not added) to each bucket as follows:
# (§3) As more water was needed, the appropriate amount of no-iron Steiner solution and Fe-chelate/Fe-chelate mixture was added to maintain a finished iron solution of 4 ppm.
# (§4) Leaf samples (at least two per plant) were collected at the end of the normal nutritional program (2 weeks). […] Elemental analyses of iron content in the plants leaves was carried out after week 2.
# [2] = test system: bell pepper plants, Capsicum annuum; assay: Overall plant growth of bell pepper plants grown hydroponically with Fe chelates; conditions: 2 weeks; 4 ppm iron, Steiner hydroponic solution, pH 8; compared with Fe EDTA and Fe EDDHA
# Protocol: as §1, §2, §3, §4
# Calibrachoa plants = assay: Iron content in plant tissue after drench with Fe treatments (elemental analysis), Calibrachoa; conditions: 4 ppm drench for 3 weeks; soilless media with lime, target pH 7.0
# Protocol: (§5) In order to establish the efficacy of PP-derived chelates, we applied the PP-Cres-Asp iron chelate to two plant species known in the field to have difficulties in absorbing iron, Calibrachoa and Petunia plants. In this trial, the plants were grown in soilless media (80% peat and 20% perlite) with lime to increase the target pH to 7.0, a pH that is averse to iron uptake in plants. All plants were top dressed with a standard polymer-coated fertilizer to provide the standard nitrogen, phosphorus, and potassium nutrition along with other micro nutrients, excluding iron. Lighting was controlled for 16-hour days. There were 3 treatments of iron added (or not added) to each bucket as follows:
# (§6) Treatments 1-3 were applied to the respective plants as a drench for 3 weeks. Following 3 weeks of treatment, tissue samples were gathered from each plant and subjected to elemental analysis for measurement of iron content in the plant tissue.
# Petunia plants = assay: Iron content in plant tissue after drench with Fe treatments (elemental analysis), Petunia; conditions: 4 ppm drench for 3 weeks; soilless media with lime, target pH 7.0
# Protocol: as §5, §6
Compound,Amount of iron delivered / iron content by plant tissue analyses (in words) [1],Overall growth of the plants [2],Iron content in plant leaves [1] [ppm],"Fe in plant tissue, Calibrachoa (Calibrachoa plants) [ppm]","Fe in plant tissue, Petunia (Petunia plants) [ppm]"
CCCc1cc(CN(CC(=O)O)CC(=O)O)c(O)c(OC)c1 [DHE-IDA],substantially greater than EDTA or EDDHA chelates,comparable to controls using conventional EDTA or EDDHA and superior to plants where only iron salts without chelate were used,,,
"O=C(O)CN(CCN(CC(=O)O)CC(=O)O)CC(=O)O [Fe EDTA, ethylenediaminetetraacetic acid, reference compound]",,,134,39,45
Cc1ccc(O)c(CN(Cc2cc(C)ccc2O)C(CC(=O)O)C(=O)O)c1 (stereo not drawn) [PP-Cres-Asp],,,,56,80
"ethylenediamine-N,N′-bis(2-hydroxyphenylacetic acid [Fe EDDHA, reference compound]",,,91,,
p-cresol iminodiacetic acid [Cres-IDA],substantially greater than EDTA or EDDHA chelates,,,,
